Data taken from ChEMBL document CHEMBL1687815, “In vivo selection of a missense mutation in adeR and conversion of the novel blaOXA-164 gene into blaOXA-58 in carbapenem-resistant Acinetobacter baumannii isolates from a hospitalized patient” (2010).
In brackets after ≈: the same amount, converted by molar mass.

Legend:
Acinetobacter baumannii [1] = assay: Antimicrobial activity against Acinetobacter baumannii isolate G expressing beta-lactamase OXA-58 isolated from tracheal secretion of patient by vitek 2 system
Acinetobacter baumannii [2] = assay: Antimicrobial activity against Acinetobacter baumannii ATCC 19606 harboring plasmid WH1266 by Etest; type: functional; settings: ATCC 19606 = CIP 70.34 = JCM 6841
Acinetobacter baumannii [3] = assay: Antimicrobial activity against Acinetobacter baumannii ATCC 17978 harboring beta-lactamase OXA-164 by Etest; type: functional
Acinetobacter baumannii [4] = assay: Antimicrobial activity against Acinetobacter baumannii isolate D expressing beta-lactamase OXA-164 isolated from tracheal secretion of patient by Etest
Acinetobacter baumannii [5] = assay: Antimicrobial activity against Acinetobacter baumannii isolate E expressing beta-lactamase OXA-164 isolated from tracheal secretion of patient by vitek 2 system
Acinetobacter baumannii [6] = assay: Antimicrobial activity against Acinetobacter baumannii isolate J expressing beta-lactamase OXA-58 isolated from bedsore by vitek 2 system
Escherichia coli [7] = assay: Antimicrobial activity against Escherichia coli NEB 5-alpha harboring plasmid WH1266 by Etest; type: functional
Acinetobacter baumannii [8] = assay: Antimicrobial activity against Acinetobacter baumannii ATCC 17978 harboring plasmid WH1266 by Etest; type: functional
Acinetobacter baumannii [9] = assay: Antimicrobial activity against Acinetobacter baumannii isolate F expressing beta-lactamase OXA-164 isolated from tracheostoma of patient by Etest
Acinetobacter baumannii [10] = assay: Antimicrobial activity against Acinetobacter baumannii isolate M expressing beta-lactamase OXA-58 isolated from tracheal secretion of patient by vitek 2 system
Acinetobacter baumannii [11] = assay: Antimicrobial activity against Acinetobacter baumannii isolate D expressing beta-lactamase OXA-164 isolated from tracheal secretion of patient by vitek 2 system
Acinetobacter baumannii [12] = assay: Antimicrobial activity against Acinetobacter baumannii isolate L expressing beta-lactamase OXA-58 isolated from tracheal secretion of patient by Etest
Acinetobacter baumannii [13] = assay: Antimicrobial activity against Acinetobacter baumannii isolate A expressing beta-lactamase OXA-164 isolated from tracheal secretion of patient by Etest
Acinetobacter baumannii [14] = assay: Antimicrobial activity against Acinetobacter baumannii isolate K expressing beta-lactamase OXA-58 isolated from blood culture of patient by Etest
Acinetobacter baumannii [15] = assay: Antimicrobial activity against Acinetobacter baumannii isolate H expressing beta-lactamase OXA-58 isolated from tracheal secretion of patient by vitek 2 system
Acinetobacter baumannii [16] = assay: Antimicrobial activity against Acinetobacter baumannii isolate F expressing beta-lactamase OXA-164 isolated from tracheostoma of patient by vitek 2 system
Acinetobacter baumannii [17] = assay: Antimicrobial activity against Acinetobacter baumannii isolate C expressing beta-lactamase OXA-164 isolated from tracheal secretion of patient by vitek 2 system
Acinetobacter baumannii [18] = assay: Antimicrobial activity against Acinetobacter baumannii isolate B expressing beta-lactamase OXA-164 isolated from tracheal secretion of patient by Etest
Acinetobacter baumannii [19] = assay: Antimicrobial activity against Acinetobacter baumannii ATCC 19606 harboring beta-lactamase OXA-58 by Etest; type: functional; settings: ATCC 19606 = CIP 70.34 = JCM 6841
Acinetobacter baumannii [20] = assay: Antimicrobial activity against Acinetobacter baumannii isolate E expressing beta-lactamase OXA-164 isolated from tracheal secretion of patient by Etest
Acinetobacter baumannii [21] = assay: Antimicrobial activity against Acinetobacter baumannii isolate J expressing beta-lactamase OXA-58 isolated from bedsore by Etest
Acinetobacter baumannii [22] = assay: Antimicrobial activity against Acinetobacter baumannii isolate M expressing beta-lactamase OXA-58 isolated from tracheal secretion of patient by Etest
Acinetobacter baumannii [23] = assay: Antimicrobial activity against Acinetobacter baumannii isolate C expressing beta-lactamase OXA-164 isolated from tracheal secretion of patient by Etest
Acinetobacter baumannii [24] = assay: Antimicrobial activity against Acinetobacter baumannii ATCC 17978 harboring beta-lactamase OXA-58 by Etest; type: functional
Acinetobacter baumannii [25] = assay: Antimicrobial activity against Acinetobacter baumannii isolate I expressing beta-lactamase OXA-58 isolated from tracheal secretion of patient by Etest
Acinetobacter baumannii [26] = assay: Antimicrobial activity against Acinetobacter baumannii isolate B expressing beta-lactamase OXA-164 isolated from tracheal secretion of patient by vitek 2 system
Acinetobacter baumannii [27] = assay: Antimicrobial activity against Acinetobacter baumannii isolate K expressing beta-lactamase OXA-58 isolated from blood culture of patient by vitek 2 system
Acinetobacter baumannii [28] = assay: Antimicrobial activity against Acinetobacter baumannii isolate G expressing beta-lactamase OXA-58 isolated from tracheal secretion of patient by Etest
Escherichia coli [29] = assay: Antimicrobial activity against Escherichia coli NEB 5-alpha harboring beta-lactamase OXA-164 by Etest; type: functional
Acinetobacter baumannii [30] = assay: Antimicrobial activity against Acinetobacter baumannii isolate L expressing beta-lactamase OXA-58 isolated from tracheal secretion of patient by vitek 2 system
Acinetobacter baumannii [31] = assay: Antimicrobial activity against Acinetobacter baumannii isolate A expressing beta-lactamase OXA-164 isolated from tracheal secretion of patient by vitek 2 system
Acinetobacter baumannii [32] = assay: Antimicrobial activity against Acinetobacter baumannii isolate H expressing beta-lactamase OXA-58 isolated from tracheal secretion of patient by Etest
Escherichia coli [33] = assay: Antimicrobial activity against Escherichia coli NEB 5-alpha harboring beta-lactamase OXA-58 by Etest; type: functional
Acinetobacter baumannii [34] = assay: Antimicrobial activity against Acinetobacter baumannii ATCC 19606 harboring beta-lactamase OXA-164 by Etest; type: functional; settings: ATCC 19606 = CIP 70.34 = JCM 6841
Acinetobacter baumannii [35] = assay: Antimicrobial activity against Acinetobacter baumannii isolate I expressing beta-lactamase OXA-58 isolated from tracheal secretion of patient by vitek 2 system

SMILES	MIC (Acinetobacter baumannii [1])	MIC (Acinetobacter baumannii [4])	MIC (Acinetobacter baumannii [5])	MIC (Acinetobacter baumannii [6])	MIC (Acinetobacter baumannii [9])	MIC (Acinetobacter baumannii [10])	MIC (Acinetobacter baumannii [11])	MIC (Acinetobacter baumannii [12])	MIC (Acinetobacter baumannii [13])	MIC (Acinetobacter baumannii [14])	MIC (Acinetobacter baumannii [15])	MIC (Acinetobacter baumannii [16])	MIC (Acinetobacter baumannii [18])	MIC (Acinetobacter baumannii [20])	MIC (Acinetobacter baumannii [21])	MIC (Acinetobacter baumannii [22])	MIC (Acinetobacter baumannii [23])	MIC (Acinetobacter baumannii [25])	MIC (Acinetobacter baumannii [28])	MIC (Acinetobacter baumannii [32])	other results
C[C@@H](O)[C@H]1C(=O)N2C(C(=O)O)=C(S[C@@H]3CN[C@H](C(=O)N(C)C)C3)[C@H](C)[C@H]12 [MEROPENEM]	≥ 16 µg/mL	32 µg/mL (≈ 83.4 µM)	8 µg/mL (≈ 20.9 µM)	8 µg/mL (≈ 20.9 µM)	16 µg/mL (≈ 41.7 µM)	8 µg/mL (≈ 20.9 µM)	8 µg/mL (≈ 20.9 µM)	≥ 64 µg/mL	32 µg/mL (≈ 83.4 µM)	≥ 64 µg/mL	8 µg/mL (≈ 20.9 µM)	4 µg/mL (≈ 10.4 µM)	32 µg/mL (≈ 83.4 µM)	32 µg/mL (≈ 83.4 µM)	≥ 64 µg/mL	≥ 64 µg/mL	8 µg/mL (≈ 20.9 µM)	≥ 64 µg/mL	≥ 64 µg/mL	≥ 64 µg/mL	MIC (Acinetobacter baumannii [2]): 0.19 µg/mL (≈ 0.495 µM); MIC (Acinetobacter baumannii [3]): > 32 µg/mL; MIC (Escherichia coli [7]): 0.012 µg/mL (≈ 0.0313 µM); MIC (Acinetobacter baumannii [8]): 0.25 µg/mL (≈ 0.652 µM); MIC (Acinetobacter baumannii [17]): 8 µg/mL (≈ 20.9 µM); MIC (Acinetobacter baumannii [19]): > 32 µg/mL; MIC (Acinetobacter baumannii [24]): > 32 µg/mL; MIC (Acinetobacter baumannii [26]): 4 µg/mL (≈ 10.4 µM); MIC (Acinetobacter baumannii [27]): 8 µg/mL (≈ 20.9 µM); MIC (Escherichia coli [29]): 0.032 µg/mL (≈ 0.0834 µM); MIC (Acinetobacter baumannii [30]): ≥ 16 µg/mL; MIC (Acinetobacter baumannii [31]): 2 µg/mL (≈ 5.22 µM); MIC (Escherichia coli [33]): 0.032 µg/mL (≈ 0.0834 µM); MIC (Acinetobacter baumannii [34]): 32 µg/mL (≈ 83.4 µM); MIC (Acinetobacter baumannii [35]): 8 µg/mL (≈ 20.9 µM)
C[C@H]1COc2c(N3CCN(C)CC3)c(F)cc3c(=O)c(C(=O)O)cn1c23.C[C@H]1COc2c(N3CCN(C)CC3)c(F)cc3c(=O)c(C(=O)O)cn1c23.O [LEVOFLOXACIN]		8 µg/mL			8 µg/mL			≥ 64 µg/mL	8 µg/mL	≥ 64 µg/mL			8 µg/mL	16 µg/mL	≥ 64 µg/mL	≥ 64 µg/mL	8 µg/mL	≥ 64 µg/mL	≥ 64 µg/mL	≥ 64 µg/mL	
NC[C@H]1O[C@H](O[C@H]2[C@H](O)[C@@H](O[C@H]3O[C@H](CO)[C@@H](O)[C@H](N)[C@H]3O)[C@H](N)C[C@@H]2N)[C@H](N)C[C@@H]1O [TOBRAMYCIN]	≤ 1 µg/mL	2 µg/mL (≈ 4.28 µM)	≤ 1 µg/mL	8 µg/mL (≈ 17.1 µM)	2 µg/mL (≈ 4.28 µM)	≤ 1 µg/mL	≤ 1 µg/mL	4 µg/mL (≈ 8.56 µM)	2 µg/mL (≈ 4.28 µM)	16 µg/mL (≈ 34.2 µM)	≤ 1 µg/mL	≤ 1 µg/mL	4 µg/mL (≈ 8.56 µM)	2 µg/mL (≈ 4.28 µM)	16 µg/mL (≈ 34.2 µM)	4 µg/mL (≈ 8.56 µM)	2 µg/mL (≈ 4.28 µM)	4 µg/mL (≈ 8.56 µM)	4 µg/mL (≈ 8.56 µM)	4 µg/mL (≈ 8.56 µM)	MIC (Acinetobacter baumannii [17]): ≤ 1 µg/mL; MIC (Acinetobacter baumannii [26]): ≤ 1 µg/mL; MIC (Acinetobacter baumannii [27]): 8 µg/mL (≈ 17.1 µM); MIC (Acinetobacter baumannii [30]): ≤ 1 µg/mL; MIC (Acinetobacter baumannii [31]): ≤ 1 µg/mL; MIC (Acinetobacter baumannii [35]): ≤ 1 µg/mL
CN(C)c1cc(NC(=O)CNC(C)(C)C)c(O)c2c1C[C@H]1C[C@H]3[C@H](N(C)C)C(O)=C(C(N)=O)C(=O)[C@@]3(O)C(O)=C1C2=O [TIGECYCLINE]	≥ 8 µg/mL	4 µg/mL (≈ 6.83 µM)	2 µg/mL (≈ 3.41 µM)	≥ 8 µg/mL	4 µg/mL (≈ 6.83 µM)	≥ 8 µg/mL	2 µg/mL (≈ 3.41 µM)	16 µg/mL (≈ 27.3 µM)	4 µg/mL (≈ 6.83 µM)	16 µg/mL (≈ 27.3 µM)	≥ 8 µg/mL	2 µg/mL (≈ 3.41 µM)	4 µg/mL (≈ 6.83 µM)	4 µg/mL (≈ 6.83 µM)	16 µg/mL (≈ 27.3 µM)	16 µg/mL (≈ 27.3 µM)	4 µg/mL (≈ 6.83 µM)	16 µg/mL (≈ 27.3 µM)	16 µg/mL (≈ 27.3 µM)	16 µg/mL (≈ 27.3 µM)	MIC (Acinetobacter baumannii [17]): 2 µg/mL (≈ 3.41 µM); MIC (Acinetobacter baumannii [26]): 2 µg/mL (≈ 3.41 µM); MIC (Acinetobacter baumannii [27]): ≥ 8 µg/mL; MIC (Acinetobacter baumannii [30]): ≥ 8 µg/mL; MIC (Acinetobacter baumannii [31]): 2 µg/mL (≈ 3.41 µM); MIC (Acinetobacter baumannii [35]): ≥ 8 µg/mL
